Data on 19 molecules can be found in patent US11161856B2 (H. Lundbeck A/S, priority 2017, dated 2021).

Where only a bound is given, the exact number is not on record here.

In one test the target is T1, MGLL (Mus musculus, UniProt O35678).
T1 construct: Brain; from tissue; host or cells: mouse brain proteome
T1 sequence (O35678 1-303): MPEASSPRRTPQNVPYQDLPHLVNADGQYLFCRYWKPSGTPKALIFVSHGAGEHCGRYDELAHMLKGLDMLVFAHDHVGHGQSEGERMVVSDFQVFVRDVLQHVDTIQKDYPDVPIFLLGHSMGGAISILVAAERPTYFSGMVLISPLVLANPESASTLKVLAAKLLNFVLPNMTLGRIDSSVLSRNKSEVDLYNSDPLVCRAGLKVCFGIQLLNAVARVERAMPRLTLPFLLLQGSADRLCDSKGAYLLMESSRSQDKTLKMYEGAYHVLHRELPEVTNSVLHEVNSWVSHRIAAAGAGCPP
The test is described as follows: In vitro competitive activity-based protein profiling, mouse brain proteome (MGLL). Conditions: for % Inh MGLL Brain (Mouse, μM): concentration not given (μM). It is filed as biochemical.

A further test addresses T2, ABHD6 (Mus musculus, UniProt Q8R2Y0).
T2 construct: Brain; from tissue; host or cells: mouse brain proteome
T2 sequence (Q8R2Y0 1-336): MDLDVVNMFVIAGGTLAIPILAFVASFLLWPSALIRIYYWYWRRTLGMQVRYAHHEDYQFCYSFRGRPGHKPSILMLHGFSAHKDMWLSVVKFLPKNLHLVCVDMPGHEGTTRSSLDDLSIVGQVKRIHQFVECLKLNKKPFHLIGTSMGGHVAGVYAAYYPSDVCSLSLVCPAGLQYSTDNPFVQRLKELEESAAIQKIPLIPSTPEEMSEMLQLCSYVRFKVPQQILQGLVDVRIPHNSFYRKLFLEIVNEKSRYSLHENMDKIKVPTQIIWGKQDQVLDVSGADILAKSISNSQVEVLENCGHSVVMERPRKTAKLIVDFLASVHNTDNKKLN
In words: In vitro competitive activity-based protein profiling, mouse brain proteome (ABHD6). The class given is biochemical. Conditions: mouse brain proteome; for % Inh ABHD6 Brain (Mouse, μM): concentration not given (μM). The method, then:
[The source words this procedure for another target and reports this target under the same test.] In Vitro Competitive Activity-Based Protein Profiling.
Proteomes (human prefrontal cortex or cell membrane fractions) (50 μL, 1.0 mg/mL total protein concentration) were preincubated with varying concentrations of inhibitors at 37° C. After 30 min, FP-Rh or HT-01 (1.0 μL, 50 μM in DMSO) was added and the mixture was incubated for another 30 min at room temperature. Reactions were quenched with SDS loading buffer (15 μL-4×) and run on SDS-PAGE.

On to `O=C(OC(C(F)(F)F)C(F)(F)F)N1CCC2(CCN(Cc3cccc(Cl)c3N3CCCC3)CC2)C1` [Example 171, 1,1,1,3,3,3-Hexafluoropropan-2-yl 8-(3-chloro-2-(pyrrolidin-1-yl)benzyl)-2,8-diazaspiro[4.5]decane-2-carboxylate], for which the “% Inh MGLL Brain (Mouse, μM)” value on MGLL was “### (### is ≥75%)”. The “% Inh ABHD6 Brain (Mouse, μM)” value on ABHD6 is “# (# is ≤25%)”.

On to `O=C(OC(C(F)(F)F)C(F)(F)F)N1CCC2(CCN(Cc3ccc(Cl)c(N4CCCC4)c3)CC2)C1` [Example 172, 1,1,1,3,3,3-Hexafluoropropan-2-yl 8-(4-chloro-3-(pynolidin-1-yl)benzyl)-2,8-diazaspiro[4.5]decane-2-carboxylate], for which the inhibition at 10 µM was greater than 75% on MGLL (at 10 uM, read-out: % Inh MGLL Brain (Mouse)) and 25 to 75% on ABHD6 (at 10 uM, read-out: % Inh ABHD6 Brain (Mouse)).

In the case of `CCN1CC2(CCN(c3cc(Cl)ccc3CN3CCN(C(=O)OC(C(F)(F)F)C(F)(F)F)CC3)C2)C1` [Example 173, 1,1,1,3,3,3-Hexafluoropropan-2-yl 4-(4-chloro-2-(2-ethyl-2,6-diazaspiro[3.4]octan-6-yl)benzyl)piperazine-1-carboxylate], the “% Inh MGLL Brain (Mouse, μM)” value at MGLL is recorded as “### (### is ≥75%)”. At ABHD6, the “% Inh ABHD6 Brain (Mouse, μM)” value is “# (# is ≤25%)”.

As to `CS(=O)(=O)N1CCC2(CCN(c3cc(Cl)ccc3CN3CCN(C(=O)OC(C(F)(F)F)C(F)(F)F)CC3)CC2)C1` [Example 174, 1,1,1,3,3,3-Hexafluoropropan-2-yl 4-(4-chloro-2-(2-(methylsulfonyl)-2,8-diazaspiro[4.5]decan-8-yl)benzyl)piperazine-1-carboxylate], on MGLL, the “% Inh MGLL Brain (Mouse, μM)” value is “### (### is ≥75%)”. Moreover, the “% Inh ABHD6 Brain (Mouse, μM)” value on ABHD6 is reported as “# (# is ≤25%)”.

On to `CS(=O)(=O)N1CC2(CCN(c3cc(Cl)ccc3CN3CCN(C(=O)OC(C(F)(F)F)C(F)(F)F)CC3)C2)C1` [Example 175, 1,1,1,3,3,3-Hexafluoropropan-2-yl 4-(4-chloro-2-(2-(methylsulfonyl)-2,6-diazaspiro[3.4]octan-6-yl)benzyl)piperazine-1-carboxylate], for which the “% Inh MGLL Brain (Mouse, μM)” value on MGLL is “### (### is ≥75%)”. On ABHD6, the “% Inh ABHD6 Brain (Mouse, μM)” value is reported as “# (# is ≤25%)”.

As for `CC(=O)N1CC2(CCN(c3cc(Cl)ccc3CN3CCN(C(=O)OC(C(F)(F)F)C(F)(F)F)CC3)C2)C1` [Example 176, 1,1,1,3,3,3-Hexafluoropropan-2-yl 4-(2-(2-acetyl-2,6-diazaspiro[3.4]octan-6-yl)-4-chlorobenzyl)piperazine-1-carboxylate], on MGLL, the “% Inh MGLL Brain (Mouse, μM)” value is “### (### is ≥75%)”. At ABHD6, the “% Inh ABHD6 Brain (Mouse, μM)” value was “# (# is ≤25%)”.

With `CN1CCC2(CCN(c3cc(Cl)ccc3CN3CCN(C(=O)OC(C(F)(F)F)C(F)(F)F)CC3)CC2)C1` [Example 177, 1,1,1,3,3,3-Hexafluoropropan-2-yl 4-(4-chloro-2-(2-methyl-2,8-diazaspiro[4.5]decan-8-yl)benzyl)piperazine-1-carboxylate], on MGLL, the “% Inh MGLL Brain (Mouse, μM)” value is given as “### (### is ≥75%)”. Besides, the “% Inh ABHD6 Brain (Mouse, μM)” value at ABHD6 was “# (# is ≤25%)”.

For `CC(=O)N1CCC2(CCN(c3cc(Cl)ccc3CN3CCN(C(=O)OC(C(F)(F)F)C(F)(F)F)CC3)CC2)C1` [Example 178, 1,1,1,3,3,3-Hexafluoropropan-2-yl 4-(2-(2-acetyl-2,8-diazaspiro[4.5]decan-8-yl)-4-chlorobenzyl)piperazine-1-carboxylate], the “% Inh MGLL Brain (Mouse, μM)” value on MGLL is “### (### is ≥75%)”. Also, the “% Inh ABHD6 Brain (Mouse, μM)” value at ABHD6 is on record as “# (# is ≤25%)”.

Take `CN1CC2(CCN(c3cc(C(F)(F)F)ccc3CN3CCN(C(=O)OC(C(F)(F)F)C(F)(F)F)CC3)C2)C1` [Example 179, 1,1,1,3,3,3-Hexafluoropropan-2-yl 4-(2-(2-methyl-2,6-diazaspiro[3,4]octan-6-yl)-4-(trifluoromethyl)benzyl) piperazine-1-carboxylate]: the “% Inh MGLL Brain (Mouse, μM)” value at MGLL was “### (### is ≥75%)”. The “% Inh ABHD6 Brain (Mouse, μM)” value on ABHD6 is given as “# (# is ≤25%)”.

As to `CC(=O)N1CC2(CCN(c3cc(C(F)(F)F)ccc3CN3CCN(C(=O)OC(C(F)(F)F)C(F)(F)F)CC3)C2)C1` [Example 180, 1,1,1,3,3,3-Hexafluoropropan-2-yl 4-(2-(2-acetyl-2,6-diazaspiro[3,4]octan-6-yl)-4-(trifluoromethyl)benzyl)pipera zine-1-carboxylate], the “% Inh MGLL Brain (Mouse, μM)” value at MGLL is “### (### is ≥75%)”. The “% Inh ABHD6 Brain (Mouse, μM)” value at ABHD6 is “# (# is ≤25%)”.

In the case of `O=C(OC(C(F)(F)F)C(F)(F)F)N1CCC2(CCN(Cc3ccc(Cl)cc3N3CCOCC3)CC2)C1` [Example 181, 1,1,1,3,3,3-Hexafluoropropan-2-yl 8-(4-chloro-2-morpholinobenzyl)-2,8-diazaspiro[4.5]decane-2-carboxylate], on MGLL, the “% Inh MGLL Brain (Mouse, μM)” value was “### (### is ≥75%)”. In addition, at ABHD6, the “% Inh ABHD6 Brain (Mouse, μM)” value is given as “# (# is ≤25%)”.

As to `CN1CCC2(CCN(c3cc(C(F)(F)F)ccc3CN3CCN(C(=O)OC(C(F)(F)F)C(F)(F)F)CC3)CC2)C1` [Example 182, 1,1,1,3,3,3-Hexafluoropropan-2-yl 4-(2-(2-methyl-2,8-diazaspiro[4.5]decan-8-yl)-4-(trifluoromethyl)benzyl) piperazine-1-carboxylate], the “% Inh MGLL Brain (Mouse, μM)” value at MGLL is “### (### is ≥75%)”. Besides, the “% Inh ABHD6 Brain (Mouse, μM)” value on ABHD6 is “# (# is ≤25%)”.

`CCN1CCC2(CCN(c3cc(C(F)(F)F)ccc3CN3CCN(C(=O)OC(C(F)(F)F)C(F)(F)F)CC3)CC2)C1` [Example 183, 1,1,1,3,3,3-Hexafluoropropan-2-yl 4-(2-(2-ethyl-2,8-diazaspiro[4.5]decan-8-yl)-4-(trifluoromethyl)benzyl) piperazine-1-carboxylate]: the “% Inh MGLL Brain (Mouse, μM)” value on MGLL is on record as “### (### is ≥75%)”. The “% Inh ABHD6 Brain (Mouse, μM)” value on ABHD6 is recorded as “# (# is ≤25%)”.

As to `CCN1CC2(CCN(c3cc(C(F)(F)F)ccc3CN3CCN(C(=O)OC(C(F)(F)F)C(F)(F)F)CC3)C2)C1` [Example 184, 1,1,1,3,3,3-Hexafluoropropan-2-yl 4-(2-(2-ethyl-2,6-diazaspiro[3,4]octan-6-yl)-4-(trifluoromethyl)benzyl) piperazine-1-carboxylate], at MGLL, the “% Inh MGLL Brain (Mouse, μM)” value is given as “### (### is ≥75%)”. The “% Inh ABHD6 Brain (Mouse, μM)” value at ABHD6 is reported as “# (# is ≤25%)”.

`CS(=O)(=O)N1CCC2(CCN(c3cc(C(F)(F)F)ccc3CN3CCN(C(=O)OC(C(F)(F)F)C(F)(F)F)CC3)CC2)C1` [Example 185, 1,1,1,3,3,3-Hexafluoropropan-2-yl 4-(2-(2-(methylsulfonyl)-2,8-diazaspiro[4.5]decan-8-yl)-4-(trifluoromethyl)benzyl) piperazine-1-carboxylate]: the “% Inh MGLL Brain (Mouse, μM)” value at MGLL was “### (### is ≥75%)”. In addition, the “% Inh ABHD6 Brain (Mouse, μM)” value at ABHD6 was “# (# is ≤25%)”.

With `CS(=O)(=O)N1CC2(CCN(c3cc(C(F)(F)F)ccc3CN3CCN(C(=O)OC(C(F)(F)F)C(F)(F)F)CC3)C2)C1` [Example 186, 1,1,1,3,3,3-Hexafluoropropan-2-yl 4-(2-(2-(methylsulfonyl)-2,6-diazaspiro[3,4]octan-6-yl)-4-(trifluoromethyl)benzyl) piperazine-1-carboxylate], the “% Inh MGLL Brain (Mouse, μM)” value at MGLL is listed as “### (### is ≥75%)”. The “% Inh ABHD6 Brain (Mouse, μM)” value at ABHD6 is reported as “# (# is ≤25%)”.

As to `O=C(OC(C(F)(F)F)C(F)(F)F)N1CCC2(CCN(Cc3ccc(C(F)(F)F)cc3N3CCCCC3)CC2)C1` [Example 187, 1,1,1,3,3,3-Hexafluoropropan-2-yl 8-(2-(piperidin-1-yl)-4-(trifluoromethyl)benzyl)-2,8-diazaspiro[4.5]decane-2-carboxylate], at MGLL, the “% Inh MGLL Brain (Mouse, μM)” value is “### (### is ≥75%)”. In addition, the “% Inh ABHD6 Brain (Mouse, μM)” value at ABHD6 is “# (# is ≤25%)”.

As for `O=C(OC(C(F)(F)F)C(F)(F)F)N1CCC2(CCN(Cc3ccc(C(F)(F)F)cc3N3CC4COCC4C3)CC2)C1` (centres unmarked) [Example 188, 1,1,1,3,3,3-Hexafluoropropan-2-yl 8-(2-(tetrahydro-1H-furo[3,4-c]pyrrol-5(3H)-yl)-4-(trifluoromethyl)benzyl)-2,8-diazaspiro[4.5]decane-2-carboxylate], the “% Inh MGLL Brain (Mouse, μM)” value on MGLL is given as “### (### is ≥75%)”. The “% Inh ABHD6 Brain (Mouse, μM)” value at ABHD6 is reported as “# (# is ≤25%)”.

For the molecule `CC(=O)N1CCC2(CCN(c3cc(C(F)(F)F)ccc3CN3CCN(C(=O)OC(C(F)(F)F)C(F)(F)F)CC3)CC2)C1` [Example 189, 1,1,1,3,3,3-Hexafluoropropan-2-yl 4-(2-(2-acetyl-2,8-diazaspiro[4.5]decan-8-yl)-4-(trifliioromethyl)benzyl) piperazine-1-carboxylate], the “% Inh MGLL Brain (Mouse, μM)” value on MGLL is given as “### (### is ≥75%)”. On ABHD6, the “% Inh ABHD6 Brain (Mouse, μM)” value is given as “# (# is ≤25%)”.
